Source: patent publication US7858608B2, “Bile acid derivatives as FXR ligands for the prevention or treatment of FXR-mediated diseases or conditions” (Intercept Pharmaceuticals, Inc., priority 2006, dated 2010)
pEC50: −log10 of the molar value. Like-named read-outs stand apart in the source and are kept apart here.

Experiments:
FXR [1] = molecular target: T1, FXR (Homo sapiens, UniProt Q96RI1); test: Cell transfection (transactivation) assay in HepG2 cell line; format: cell-based; design: expressed in transfected cells; host or cells: HepG2; settings: HepG2 cells, 1 μM
T1 sequence (Q96RI1 1-486): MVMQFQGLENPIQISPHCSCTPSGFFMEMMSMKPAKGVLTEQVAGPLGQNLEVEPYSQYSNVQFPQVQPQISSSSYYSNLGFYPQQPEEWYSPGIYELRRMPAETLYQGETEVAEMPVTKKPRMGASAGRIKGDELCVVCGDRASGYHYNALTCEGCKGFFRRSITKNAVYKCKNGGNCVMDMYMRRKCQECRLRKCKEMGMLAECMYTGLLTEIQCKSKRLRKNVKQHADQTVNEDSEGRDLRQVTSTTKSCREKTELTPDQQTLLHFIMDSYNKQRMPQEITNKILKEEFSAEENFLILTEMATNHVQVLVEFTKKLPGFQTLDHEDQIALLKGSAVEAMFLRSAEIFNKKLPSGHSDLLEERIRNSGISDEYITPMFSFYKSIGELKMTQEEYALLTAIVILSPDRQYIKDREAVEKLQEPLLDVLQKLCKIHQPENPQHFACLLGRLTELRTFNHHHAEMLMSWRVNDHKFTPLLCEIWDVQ
Protocol: It was also evaluated if compound (Ia) modulated FXR-regulated genes in a cellular assay using a human hepatocyte cell line (HepG2). […] A detailed description of these methods can be found in the following reference: Fiorucci S., et al. Gastroenterology 2004.

[2] = tested on: FXR or other nuclear receptors; test: Liver cells transfected with viral constructs carrying FXR or other nuclear receptors upstream of the luciferase gene; format: cell-based; settings: mouse, rat, and human hepatocytes, luciferase reporter
FXR [3] = molecular target: T1, FXR; test: Cell-free FRET assay, recruitment of the SRC1 peptide to FXR; format: biochemical; settings: for Potency in activating FXR relative to CDCA (concentration for Scr-1 recruitment lower than CDCA): cell-free FRET assay, versus CDCA
From the text: This technology, a cell free assay, is described in […]., et al. J Med Chem. 2002 15; 45:3569-72).

[4] = tested on: FXR regulated genes (SHP, CYP7α1, SREPB-1c, FAS, BSEP); settings: human, 18 h, 10 μM
From the text: Human hepatocyte cell line HepG2 was used for these studies.
The effects of these ligands on FXR responsive genes was then investigated by quantitative reverse transcription PCR (qRT-PCR).

HepG2 cells = test: Direct cell toxicity on exposure of HepG2 cells; format: cell-based, human; settings: HepG2 cells exposed to the ligands

Q: Which “Transactivation of FXR” value (FXR [1]) does the source give for `C[C@H](CCNC(=O)OC/C=C/c1ccccc1)[C@H]1CCC2C3C(CC[C@@]21C)[C@@]1(C)CC[C@@H](O)CC1C[C@H]3O` (stereo partly drawn) [Compound (Ia), 23-N-Carbacinnamyloxy-3α,7α-dihydroxy-5β-norcholanylamine] here?
A: transactivation

Q: And the “Transactivation of FXR” value (FXR [1]; listed as compound (Ia))?
A: transactivates FXR

Q: And the “Selectivity for FXR over other nuclear receptors” value [2]?
A: selective FXR ligand

Q: And the “Efficacy (relative recruitment of the SRC1 peptide to FXR where CDCA = 100%)” value (FXR [3]; FRET, human FXR, mean ± SE, n = 4)?
A: 66%

Q: And the pEC50 (FXR [3]; FRET, human FXR, mean ± SE, n = 4, read-out: Cell-Free Assay EC50)?
A: 6.23

Q: And the “Potency in activating FXR relative to CDCA (concentration for Scr-1 recruitment lower than CDCA)” value (FXR [3])?
A: approximately 20 fold

Q: And the “Potency in activating FXR relative to CDCA (concentration for Scr-1 recruitment lower than CDCA)” value (FXR [3]; listed as compound (Ia))?
A: ~20 fold

Q: And the pEC50 (FXR [3]; concentrations ranging from 1 nM to 100 μM, read-out: EC50 as FXR ligand in cell free FRET assay (Table 2 summary))?
A: ~6.30

Q: And the “Induction of BSEP mRNA expression” value [4]?
A: approximately 13 fold

Q: What about the Direct cell toxicity (HepG2 cells) of the same compound?
A: no direct cell toxicity

Q: And the melting point?
A: 79 to 84 °C

Q: With `CC[C@H]1[C@@H](O)[C@@H]2[C@H](CC[C@]3(C)[C@@H]([C@H](C)CCC(=O)O)CC[C@@H]23)[C@@]2(C)CC[C@@H](O)C[C@@H]12` [Compound 6-ECDCA, 6-ethyl-chenodeoxycholic acid] as the compound, how does the Direct cell toxicity (HepG2 cells) read?
A: no direct cell toxicity

Q: Which “Induction of SHP expression” value [4] does the source give for `C[C@H](CCC(=O)O)[C@H]1CC[C@H]2[C@@H]3[C@H](O)C[C@@H]4C[C@H](O)CC[C@]4(C)[C@H]3CC[C@]12C` [CDCA, chenodeoxycholic acid, reference compound] here?
A: 2-3 fold

Q: What about the “Reduction of the expression of CYP7α1 mRNA” value [4] of the same compound?
A: 60-70%

Q: What about the Direct cell toxicity (HepG2 cells) of the same compound?
A: no direct cell toxicity
